# In patent US20110207751A1, “HETEROCYCLIC COMPOUNDS AND USES AS ANTICANCER AGENTS” (priority 2010, published 2011):
# Assays:
# [1] = tested on: KB200 cells over-expressing multiple drug resistant (MDR) gene; assay: Inhibition of cell proliferation, xCelligence cell index; format: cell-based; conditions: Homo sapiens, 72 hr post compound treatment, read-out: calculated IC50
# Description: (§2) The biological activity of compounds disclosed herein was monitored and profiled using the Real-Time Cell Electronic Sensing (RT-CES®) system from ACEA Biosciences, Inc. The RT-CES system utilizes cell-substrate impedance technology to monitor cellular behavior inside tissue culture wells in a microtiter plate format. The technology features in the integration of molecular and cell biology with microelectronics and is based on the electronic detection of biological assay process.
# For measurement of cell-substrate or cell-electrode impedance using RT-CES technology, microelectrodes having appropriate geometries are fabricated onto the bottom surfaces of microtiter plate or similar device, facing into the wells. Cells are introduced into the wells of the devices, and make contact to and attach to the electrode surfaces. The presence, absence or change of properties of cells affects the electronic and ionic passage on the electrode sensor surfaces. Measuring the impedance between or among electrodes provides important information about biological status of cells present on the sensors. When there are changes to the biological status of the cells analogue electronic readout signals are measured automatically and in real time, and are converted to digital signals for processing and for analysis. In a RT-CES system, a cell index (arbitrary representation of change in impedance) is automatically derived and provided based on measured electrode impedance values. The cell index obtained for a given well reflects: 1) how many cells are attached to the electrode surfaces in this well; 2) how well cells are attached to the electrode surfaces in this well. Thus, the more the cells of same type in similar physiological conditions attach the electrode surfaces, the larger the cell index. And, the better the cells attach to the electrode surfaces (e.g., the cells spread-out more to have larger contact areas, or the cells attach tighter to electrode surfaces), the larger the cell index.
# To quantify cell status based on the measured cell-electrode impedance, a parameter termed Cell Index is derived. Cell Index is a quantitative measure of the status of the cells in an electrode-containing well. Under the same physiological conditions, more cells attached on to the electrodes leads to larger cell-electrode resistance value, leading to a larger value for Cell Index. Furthermore, for the same number of cells present in the well, a change in the cell status such as morphology will lead to a change in the Cell Index. […]
# The efficacy of these compounds was also tested against KB200 cell over-expressing multiple drug resistant (MDR) gene. […] The cell status was monitored prior to and after the compound addition using xCelligence system (Roche). […]
# [2] = tested on: tubulin (colchicine-binding site); assay: Spin column assay with [^3H]colchicine; conditions: tubulin with [^3H]colchicine and unlabeled competitor, 37° C. 1 h
# Description: (§1) Spin column assay. […] The reaction mixtures were incubated at 37° C. for 1 h. The samples were loaded onto Illustra™ MicroSpin™ G-50 columns (GE Healthcare) previously equilibrated with the buffer solution. The columns were placed into 1.5-ml tubes and spun at 750 g for 2 min at room temperature, and radioactivity in the flow-through was analyzed by a scintillation counter.
# [3] = tested on: tubulin (vinblastine-binding site); assay: Spin column assay with [^3H]vinblastine; conditions: tubulin with [^3H]vinblastine and unlabeled competitor, 37° C. 1 h
# Description: as §1
# [4] = tested on: KB cells (parental cervical cancer cell line); assay: Inhibition of cell proliferation, xCelligence cell index; format: cell-based; conditions: Homo sapiens, 72 hr post compound treatment, read-out: calculated IC50
# Description: as §2
# For measurement of cell-substrate or cell-electrode impedance using RT-CES technology, microelectrodes having appropriate geometries are fabricated onto the bottom surfaces of microtiter plate or similar device, facing into the wells. Cells are introduced into the wells of the devices, and make contact to and attach to the electrode surfaces. The presence, absence or change of properties of cells affects the electronic and ionic passage on the electrode sensor surfaces. Measuring the impedance between or among electrodes provides important information about biological status of cells present on the sensors. When there are changes to the biological status of the cells analogue electronic readout signals are measured automatically and in real time, and are converted to digital signals for processing and for analysis. In a RT-CES system, a cell index (arbitrary representation of change in impedance) is automatically derived and provided based on measured electrode impedance values. The cell index obtained for a given well reflects: 1) how many cells are attached to the electrode surfaces in this well; 2) how well cells are attached to the electrode surfaces in this well. […]
# To quantify cell status based on the measured cell-electrode impedance, a parameter termed Cell Index is derived. Cell Index is a quantitative measure of the status of the cells in an electrode-containing well. […]
# The parental cervical cancer cell line, KB cells were first tested. […] The cell status was monitored prior to and after the compound addition using xCelligence system (Roche). […]
compound,measurement,setting,value
"CC[C@]1(O)C[C@@H]2CN(CCc3c([nH]c4ccccc34)[C@@](C(=O)OC)(c3cc4c(cc3OC)N(C)[C@H]3[C@@](O)(C(=O)OC)[C@H](OC(C)=O)[C@]5(CC)C=CCN6CC[C@]43[C@@H]65)C2)C1 [vinblastine, reference compound]",IC50,[1],135 nM
same,amount of [^3H]colchicine in the flow-through,[2],did not influence the amount of [^3H]colchicine in the flow-through
same,amount of [^3H]vinblastine in the flow-through,[3],reduced the amount of [^3H]vinblastine found in the flow-through in a concentration-dependent manner
same,IC50,[4],4.74 nM
